Experimental data taken from patent US9204653B2, “5-fluoro pyrimidine derivatives” (DOW AGROSCIENCES LLC, priority 2008, dated 2015).
Where two headings read alike, the source gives them in different places.

Test system: Mycosphaerella graminicola; Anamorph: Septoria tritici; Bayer Code SEPTTR
Test: Leaf blotch of wheat, foliar fungicide treatment, one day protectant (1DP) or three day curative (3DC)
Assay type: in vivo, Septoria tritici on wheat plants (variety Yuma)
Conditions: Zymoseptoria tritici; for pest or weed control at 50 ppm / pest or weed control at 200 ppm: % disease control rating
[1] = 24 h, one day protectant (1DP), 25 ppm, rating of percent disease control, read-out: SETTTR 1DP 25 ppm
[2] = 24 h, one day protectant (1DP), rating of percent disease control, read-out: SEPTTR 1DP 100 ppm
[3] = 72 h, three day curative (3DC), 25 ppm, rating of percent disease control, read-out: SEPTTR 3DC 25 ppm
[4] = 72 h, three day curative (3DC), rating of percent disease control, read-out: SEPTTR 3DC 100 ppm
[5] = 24 h, one day protectant, 25 ppm, rating of percent disease control, read-out: SETTTR 1DP 25 ppm
[6] = 24 h, one day protectant, rating of percent disease control, read-out: SEPTTR 1DP 100 ppm
[7] = 72 h, three day curative, 25 ppm, rating of percent disease control, read-out: SEPTTR 3DC 25 ppm
[8] = 72 h, three day curative, rating of percent disease control, read-out: SEPTTR 3DC 100 ppm
[9] = 24 h, one day protectant (1DP), 25 ppm, percent disease control rating, read-out: SETTTR 1DP 25 ppm
[10] = 24 h, one day protectant (1DP), percent disease control rating, read-out: SEPTTR 1DP 100 ppm
[11] = 72 h, three day curative (3DC), 25 ppm, percent disease control rating, read-out: SEPTTR 3DC 25 ppm
[12] = 72 h, three day curative (3DC), percent disease control rating, read-out: SEPTTR 3DC 100 ppm

CCOC(CC)Nc1nc(OCc2ccc(F)cc2)ncc1F (stereo not shown) [Compound 227]
pest or weed control at 25 ppm [1]: 76 to 100%
pest or weed control at 100 ppm [2]: 76 to 100%
pest or weed control at 25 ppm [3]: 76 to 100%
pest or weed control at 100 ppm [4]: 76 to 100%

Nc1nc(OCc2cccc(O)c2)ncc1F [Compound 423]
pest or weed control at 25 ppm [1]: 0 to 25%
pest or weed control at 100 ppm [2]: 0 to 25%
pest or weed control at 25 ppm [3]: 0 to 25%
pest or weed control at 100 ppm [4]: 0 to 25%

Nc1nc(OCc2ccccc2I)ncc1F [Compound 391]
pest or weed control at 25 ppm [1]: 51 to 75%
pest or weed control at 100 ppm [2]: 76 to 100%
pest or weed control at 25 ppm [3]: 26 to 50%
pest or weed control at 100 ppm [4]: 76 to 100%

Nc1nc(OCc2cc(Cl)nc(Cl)c2)ncc1F [Compound 682]
pest or weed control at 25 ppm [5]: 76 to 100%
pest or weed control at 100 ppm [6]: 76 to 100%
pest or weed control at 25 ppm [7]: 76 to 100%
pest or weed control at 100 ppm [8]: 76 to 100%

CN(C)/C=N/c1nc(OC(=O)Oc2cccc(C(F)(F)F)c2)ncc1F [Compound 425]
pest or weed control at 25 ppm [1]: 76 to 100%
pest or weed control at 100 ppm [2]: 76 to 100%
pest or weed control at 25 ppm [3]: 76 to 100%
pest or weed control at 100 ppm [4]: 76 to 100%

CC(Oc1ncc(F)c(N)n1)c1c(Cl)ccc(Cl)c1Cl (stereo not shown) [Compound 382]
pest or weed control at 25 ppm [1]: 76 to 100%
pest or weed control at 100 ppm [2]: 76 to 100%
pest or weed control at 25 ppm [3]: 0 to 25%
pest or weed control at 100 ppm [4]: 76 to 100%

CC#CCOc1ncc(F)c(NCO)n1 [Compound 559]
pest or weed control at 25 ppm [5]: 51 to 75%
pest or weed control at 100 ppm [6]: 76 to 100%
pest or weed control at 25 ppm [7]: 76 to 100%
pest or weed control at 100 ppm [8]: 76 to 100%

Nc1nc(OC2CCCCC2)ncc1F [Compound 848]
pest or weed control at 50 ppm (24 h, one day protectant): 0 to 25%
pest or weed control at 200 ppm (24 h, one day protectant): 0 to 25%

CC(Oc1ncc(F)c(NCO)n1)c1ccc(F)cc1 (stereo not shown) [Compound 88]
pest or weed control at 25 ppm [9]: 26 to 50%
pest or weed control at 100 ppm [10]: 76 to 100%
pest or weed control at 25 ppm [11]: 26 to 50%
pest or weed control at 100 ppm [12]: 76 to 100%

CC(C)(C)Oc1cccc(COc2ncc(F)c(N)n2)c1 [Compound 385]
pest or weed control at 25 ppm [1]: 76 to 100%
pest or weed control at 100 ppm [2]: 76 to 100%
pest or weed control at 25 ppm [3]: 76 to 100%
pest or weed control at 100 ppm [4]: 76 to 100%

CC[Si](CC)(CC)Nc1nc(OCc2ccc(C)cc2)ncc1F [Compound 561]
pest or weed control at 25 ppm [5]: 76 to 100%
pest or weed control at 100 ppm [6]: 76 to 100%
pest or weed control at 25 ppm [7]: 76 to 100%
pest or weed control at 100 ppm [8]: 76 to 100%

O=C(Nc1nc(OCc2ccccc2)ncc1F)c1ccccc1 [Compound 435]
pest or weed control at 25 ppm [1]: 76 to 100%
pest or weed control at 100 ppm [2]: 76 to 100%
pest or weed control at 25 ppm [3]: 51 to 75%
pest or weed control at 100 ppm [4]: 76 to 100%

Fc1ccccc1CNc1nc(OCc2ccc3c(c2)OCO3)ncc1F [Compound 928]
pest or weed control at 50 ppm (24 h, one day protectant): 76 to 100%
pest or weed control at 200 ppm (24 h, one day protectant): 76 to 100%

COc1ccccc1COc1ncc(F)c(/N=C2\CCCCN2C)n1 [Compound 317]
pest or weed control at 25 ppm [1]: 51 to 75%
pest or weed control at 100 ppm [2]: 76 to 100%
pest or weed control at 25 ppm [3]: 26 to 50%
pest or weed control at 100 ppm [4]: 76 to 100%

CCOCCOc1cccc(COc2ncc(F)c(NSc3ccccc3[N+](=O)[O-])n2)c1 [Compound 655]
pest or weed control at 25 ppm [5]: 51 to 75%
pest or weed control at 100 ppm [6]: 76 to 100%
pest or weed control at 25 ppm [7]: 51 to 75%
pest or weed control at 100 ppm [8]: 26 to 50%

CSCOc1ncc(F)c(/N=C/N(C)C)n1 [Compound 1127]
pest or weed control at 25 ppm (24 h, one day protectant (1DP), 25 ppm (first 1DP column), percent control rating, read-out: SETTTR 1DP 25 ppm): 76 to 100%
pest or weed control at 25 ppm (24 h, one day protectant (1DP), 25 ppm as printed (second 1DP column), percent control rating, read-out: SETTTR 1DP 25 ppm): 76 to 100%
pest or weed control at 25 ppm (72 h, three day curative (3DC), 25 ppm, percent control rating, read-out: SEPTTR 3DC 25 ppm): 76 to 100%
pest or weed control at 100 ppm (72 h, three day curative (3DC), percent control rating, read-out: SEPTTR 3DC 100 ppm): 76 to 100%

CN(C)/C=N/c1nc(OC(=O)c2c(Cl)cccc2Cl)ncc1F [Compound 234]
pest or weed control at 25 ppm [1]: 76 to 100%
pest or weed control at 100 ppm [2]: 76 to 100%
pest or weed control at 25 ppm [3]: 76 to 100%
pest or weed control at 100 ppm [4]: 76 to 100%

Fc1cnc(OCc2ccc(Cl)cc2Cl)nc1NCc1cccs1 [Compound 838]
pest or weed control at 200 ppm (24 h, one day protectant): 76 to 100%

O=[N+]([O-])c1ccccc1SNc1nc(OCc2ccsc2)ncc1F [Compound 157]
pest or weed control at 25 ppm [9]: 26 to 50%
pest or weed control at 100 ppm [10]: 76 to 100%
pest or weed control at 25 ppm [11]: 26 to 50%
pest or weed control at 100 ppm [12]: 26 to 50%

Cc1nc(C)c(COc2ncc(F)c(N)n2)s1 [Compound 772]
pest or weed control at 25 ppm [1]: 76 to 100%
pest or weed control at 100 ppm [2]: 76 to 100%
pest or weed control at 25 ppm [3]: 76 to 100%
pest or weed control at 100 ppm [4]: 76 to 100%
